Source: patent US11969465B2, “Toxoplasma gondii vaccines and their use” (Alpha-O Peptides AG, priority 2016, dated 2024)
Where two headings read alike, the source gives them in different places.

Tests used:
[1] = system: PBMC from T. gondii-seropositive HLA-A03 individuals; assay: IFN-γ ELISpot assay with human PBMC; type: cell-based; details: for IFN-γ-secreting spot formation: PBMC from Toxoplasma seropositive HLA-A03 individuals, compared to an irrelevant HLA-A*1101-restricted peptide
Protocol: To determine which of these peptides would be recognized in the context of Toxoplasma infection, peripheral blood mononuclear cells (PBMC) from T. gondii-seropositive HLA-A03 individuals were tested for response to these peptides in pools or individually by using an IFN-γ ELISpot assay. Candidate peptides were considered immunogenic if they induced IFN-γ-secreting spot formation that was significant compared to an irrelevant HLA-A*1101-restricted peptide.
The epitopes were linked together with N/K alanines or GPGPG (SEQ ID NO: 23) as linker, named as LO and AZ, respectively (FIG. 3A-B). […] Immunogenicity of the two proteins compared to the pool of the 5 individual A11-restricted CD8^+ T cell epitope peptides was tested in vitro.
PBMC were obtained from individuals seropositive to T. gondii, and their HLA haplotype was determined.

TLR5 = target: T1, TLR5 (Homo sapiens, UniProt O60602); type: cell-based; details: for TLR5 activity (SEAP expression): 0.01-1000 ng/ml, 24 hours
T1 construct: expressed in transfected cells; host or cells: HEK 293 (stably co-transfected with TLR5 and NF-kB-driven SEAP reporter)

[2] = Immune response to Tox-All in HLA transgenic mice; parameters: species or system HLA A2 and HLA A11 mice; details: mouse, in vivo
From the text: The schematic diagrams of SAPN A11 (SEQ ID NO:27) in FIG. 17A 12e is similar to the schematic diagram of the more complex SAPN Tox-All (FIG. 17B). (FIG. 12f). […] Tox-All contains CD8 T cell eliciting epitopes by binding to HLA All, A2, and B7, PADRE a universal CD4 T cell eliciting epitope, protein domains that can elicit antibody (data not shown). Tox-All has the same scaffold flagellin that is shown for SAPN A11. […] Additional CD8 peptides that bind to other HLA molecules to broaden population coverage and CD4 peptides can be added in this complex SAPN. Additional proteins that elicit B cells can also be included in the SAPN. This allows us to tailor an immune response for each component of the immune system we wish to stimulate. The methods and approaches are those described for the A11 SAPN.

T1 sequence (O60602 21-858): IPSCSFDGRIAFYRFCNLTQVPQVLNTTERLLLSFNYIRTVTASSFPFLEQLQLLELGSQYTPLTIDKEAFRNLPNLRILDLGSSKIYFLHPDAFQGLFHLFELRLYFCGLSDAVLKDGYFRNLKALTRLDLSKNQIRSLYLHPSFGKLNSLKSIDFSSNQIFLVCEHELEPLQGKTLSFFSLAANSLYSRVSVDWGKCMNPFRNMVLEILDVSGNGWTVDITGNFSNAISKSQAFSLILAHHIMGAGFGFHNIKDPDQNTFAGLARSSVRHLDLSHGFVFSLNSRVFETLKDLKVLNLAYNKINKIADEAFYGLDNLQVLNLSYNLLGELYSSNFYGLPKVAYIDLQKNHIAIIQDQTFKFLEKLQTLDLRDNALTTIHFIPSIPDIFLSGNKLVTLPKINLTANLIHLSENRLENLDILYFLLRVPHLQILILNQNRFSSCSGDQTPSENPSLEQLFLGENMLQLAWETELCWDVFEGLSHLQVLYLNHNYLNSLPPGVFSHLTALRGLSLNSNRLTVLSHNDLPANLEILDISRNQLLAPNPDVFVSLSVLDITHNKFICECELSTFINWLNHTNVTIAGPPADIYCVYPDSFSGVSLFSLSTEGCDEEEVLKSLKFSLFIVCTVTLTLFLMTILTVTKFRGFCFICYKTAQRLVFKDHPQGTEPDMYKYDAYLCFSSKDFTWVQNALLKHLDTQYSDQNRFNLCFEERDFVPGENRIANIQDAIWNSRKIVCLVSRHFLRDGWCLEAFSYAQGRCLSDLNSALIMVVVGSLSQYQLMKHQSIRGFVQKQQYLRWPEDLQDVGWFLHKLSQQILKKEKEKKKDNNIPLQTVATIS

In the case of AVVSLLRLLK [GRA589-98], the IFN-γ-secreting spot formation [1] is reported as “stimulated significant response”.

With “Concanavalin A [Con A, reference compound]” the “IFN-γ ELISpot response, seropositive versus seronegative donors” value ([1]; PBMC of 3 seropositive and 3 seronegative HLA-A03 individuals) was “response of PBMC from both seronegative and seropositive donors”.

In the case of SSAYVFSVK [SRS52A250-258], the IFN-γ-secreting spot formation [1] is reported as “stimulated significant response”.

With STFWPCLLR [SAG2C13-21] the IFN-γ-secreting spot formation [1] was “stimulated significant response”.

B1: CD8-SAPN: self-assembling protein nanoparticle with five CD8+ epitopes and PADRE inserted into flagellin (protein)
chain: MGDKHHHHHHHHHHKDGSDKGSWEEWNARWDEWENDWNDWREDWQAWRDDWARWRATWMGGRLLSRLERLERRNEELRRLLQLIRHENRMVLQFVRALSMQNAELERRLEELARGMAQVINTNSLSLLTQNNLNRSQSALGTAIERLSSGLRINSARDDAAGQAIANRFTANIRGLTQASRNANDGISIAQTTEGALNEINNNLQRVRELAVQSANSTNSQSDLDSIQAEITQRLNEIDRVSGQTQFNGVRVLAQDNTLTIQVGANDGETIDIDLRQINSQTLGLDQLNVQQEYESDDAVVSLLRLLKNAMLTAFFLRNAAAKSFKDILPKKAAASSAYVFSVKKAAAKFVAAWTLKAAAKSTFWPCLLRDSDSDTENPLQRIDAALAQVDALRSDLGAVQNRFNSAITNLGNTVNNLSEARSRIEDSDYATEVSNMSRAQILQQAGTSVLAQANQVPQNVLSLLR
modifications: (1)..(14) optionally absent
For B1, the “TLR5 activity (SEAP expression)” value (TLR5) was “significantly enhanced” and the “TLR5 activity (SEAP expression)” value (TLR5; listed as SAPN) was “good stimulation”.

B2: Tox-All: SAPN with HLA A11, A2 and B7 CD8 epitopes, PADRE, antibody-eliciting domains and flagellin (protein)
chain: MGDDHHHHHHHHHHWFMGVLVNSLQDITMGSLFFVQDFMIVSISLVQDGLAAAVVAVQDLPQFATAATRDSPASGRYIQQMLDQRCQEIAAELCQSGLRKMCVPSSRIVARNAVGITHQNTLQWRCFDTASLLESNQENNGVNCVDDCGHTIPCPGGVHRQNSNHATRHEILSKLVEEGVQRFCSPYQASANKYCNDKFPGTIARRSKGFGNNVEVAWRCYEKASLLYSVYAECASNCGTTWYCPGGRRGTSTELDKRHYTEEEGIRQAIGSVDSPCSEVEVCLPKDENPPLCLDESGQISRGSWEEWNARWDEWENDWNDWREDWQAWRDDWARWRATWMGGRLLSRLERLERRNEELRRLLQLIRHENRMVLQFVRALSMQNAELERRLEELARGMAQVINTNSLSLLTQNNLNRSQSALGTAIERLSSGLRINSARDDAAGQAIANRFTANIRGLTQASRNANDGISIAQTTEGALNEINNNLQRVRELAVQSANSTNSQSDLDSIQAEITQRLNEIDRVSGQTQFNGVRVLAQDNTLTIQVGANDGETIDIDLRQINSQTLGLDQLNVQQEYESDDAVVSLLRLLKNAMLTAFFLRNAAAKSFKDILPKKAAASSAYVFSVKKAAAKFVAAWTLKAAAKSTFWPCLLRDSDSDTENPLQRIDAALAQVDALRSDLGAVQNRFNSAITNLGNTVNNLSEARSRIEDSDYATEVSNMSRAQILQQAGTSVLAQANQVPQNVLSLLR
modifications: (1)..(14) optionally absent
For B2, the immune response [2] was “stimulates an immune response” and the TLR5 stimulation (TLR5; data not shown) was “stimulates TLR5”.
